# According to ChEMBL document CHEMBL1133474, “Role of hydrophobic interactions in binding S-(N-aryl/alkyl-N-hydroxycarbamoyl)glutathiones to the active site of the antitumor target enzyme glyoxalase I” (J Med Chem, 2000):
# Target: Lactoylglutathione lyase (Homo sapiens, UniProt Q04760)
# Assay: Binding affinity for Glyoxalase I
# Lactoylglutathione lyase, sequence (Q04760 whole entry): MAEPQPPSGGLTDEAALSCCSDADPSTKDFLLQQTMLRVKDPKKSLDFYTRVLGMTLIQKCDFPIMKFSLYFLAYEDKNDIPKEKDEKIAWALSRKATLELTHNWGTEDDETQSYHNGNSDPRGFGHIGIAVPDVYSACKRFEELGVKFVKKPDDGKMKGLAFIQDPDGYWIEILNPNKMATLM
row,SMILES,Ki [nM]
1,CCCCCN(O)C(=O)SC[C@H](NC(=O)CC[C@H](N)C(=O)O)C(=O)NCC(=O)O,170
2,CCN(O)C(=O)SC[C@H](NC(=O)CC[C@H](N)C(=O)O)C(=O)NCC(=O)O,1180
3,CCCCCCN(O)C(=O)SC[C@H](NC(=O)CC[C@H](N)C(=O)O)C(=O)NCC(=O)O,16
4,CCCN(O)C(=O)SC[C@H](NC(=O)CC[C@H](N)C(=O)O)C(=O)NCC(=O)O,800
5,CCCCN(O)C(=O)SC[C@H](NC(=O)CC[C@H](N)C(=O)O)C(=O)NCC(=O)O,180
6,CN(O)C(=O)SC[C@H](NC(=O)CC[C@H](N)C(=O)O)C(=O)NCC(=O)O,1700
7,CCCCCCCN(O)C(=O)SC[C@H](NC(=O)CC[C@H](N)C(=O)O)C(=O)NCC(=O)O,18
8,N[C@@H](CCC(=O)N[C@@H](CSC(=O)NO)C(=O)NCC(=O)O)C(=O)O,183000
